Data from the supplement of paper PMC10307832.

How the values were obtained:
Assay in all cases: relative viability (nuclei count vs DMSO), 5 days (fraction); higher = more cells survive
A549 = tested on: A549
Summary of the method: (§1)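 Relative viability divides the nuclei count in treated wells by that in vehicle wells. Lung cancer cell lines were seeded in 1536-well plates, dosed by pin tool the next day, and fixed and stained after 5 days in one step with final 0.05% Triton X-100, 1% formaldehyde and 1 ug/ml Hoechst. Dosing was a single drug or a fixed anchor-drug dose plus five library-drug doses (not always all listed) in √10 steps, and values are medians of duplicate plates imaged at 4×.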

COR-L 105 = tested on: COR-L 105
Summary of the method: as §1

LCLC-103H = tested on: LCLC-103H
Summary of the method: as §1

LK-2 = tested on: LK-2
Summary of the method: as §1

NCI-H1355 = tested on: NCI-H1355
Summary of the method: as §1

NCI-H1623 = tested on: NCI-H1623
Summary of the method: as §1

NCI-H520 = tested on: NCI-H520
Summary of the method: as §1

NCI-H522 = tested on: NCI-H522
Summary of the method: as §1

Calu-6 = tested on: Calu-6
Summary of the method: as §1

EBC-1 = tested on: EBC-1
Summary of the method: as §1

IA-LM = tested on: IA-LM
Summary of the method: as §1

NCI-H1299 = tested on: NCI-H1299
Summary of the method: as §1

NCI-H1703 = tested on: NCI-H1703
Summary of the method: as §1

For COc1nc(C)cnc1NS(=O)(=O)c1cccnc1-c1ccc(-c2nnco2)cc1 [Zibotentan] + N=C(N)NC(=N)NCCc1ccccc1 [Phenformin] (partner 250 µM), the relative viability (A549; first compound 0.08 µM) was 0.184, the relative viability (A549; first compound 0.253 µM) was 0.136 and the relative viability (A549; first compound 0.8 µM) was 0.183. For the same compound, the relative viability (A549; first compound 2.53 µM) was 0.135, the relative viability (COR-L 105; first compound 0.08 µM) was 0.382 and the relative viability (COR-L 105; first compound 0.253 µM) was 0.423. For the same compound, the relative viability (COR-L 105; first compound 0.8 µM) was 0.406, the relative viability (COR-L 105; first compound 2.53 µM) was 0.554 and the relative viability (LCLC-103H; first compound 0.08 µM) was 0.357. For the same compound, the relative viability (LCLC-103H; first compound 0.253 µM) was 0.314, the relative viability (LCLC-103H; first compound 0.8 µM) was 0.315 and the relative viability (LCLC-103H; first compound 2.53 µM) was 0.333. For the same compound, the relative viability (LK-2; first compound 0.08 µM) was 0.354, the relative viability (LK-2; first compound 0.253 µM) was 0.403 and the relative viability (LK-2; first compound 0.8 µM) was 0.467. The relative viability (LK-2; first compound 2.53 µM) was 0.59, the relative viability (NCI-H1355; first compound 0.08 µM) was 0.465 and the relative viability (NCI-H1355; first compound 0.253 µM) was 0.414. It also gave a relative viability (NCI-H1355; first compound 0.8 µM) of 0.449, a relative viability (NCI-H1355; first compound 2.53 µM) of 0.491 and a relative viability (NCI-H1623; first compound 0.08 µM) of 0.592. The relative viability (NCI-H1623; first compound 0.8 µM) was 0.626, the relative viability (NCI-H1623; first compound 2.53 µM) was 0.564 and the relative viability (NCI-H520; first compound 0.08 µM) was 0.726. It also gave a relative viability (NCI-H520; first compound 0.253 µM) of 0.58, a relative viability (NCI-H520; first compound 0.8 µM) of 0.519 and a relative viability (NCI-H520; first compound 2.53 µM) of 0.581. The relative viability (NCI-H522; first compound 0.08 µM) was 0.614, the relative viability (NCI-H522; first compound 0.253 µM) was 0.648 and the relative viability (NCI-H522; first compound 0.8 µM) was 0.672. It also gave a relative viability (NCI-H522; first compound 2.53 µM) of 0.723.

O=c1cc(-c2cccc3c2Sc2ccccc2S3)oc(N2CCOCC2)c1 + COc1cc2c(Oc3ccc(NC(=O)C4(C(=O)Nc5ccc(F)cc5)CC4)cc3F)ccnc2cc1OCCCN1CCOCC1 [Foretinib] (partner 0.25 µM) showed a relative viability (A549; first compound 0.08 µM) of 1, a relative viability (A549; first compound 0.253 µM) of 1.06 and a relative viability (A549; first compound 0.8 µM) of 1.15. It also gave a relative viability (A549; first compound 2.53 µM) of 0.978, a relative viability (A549; first compound 8 µM) of 1.03 and a relative viability (COR-L 105; first compound 0.08 µM) of 1.31. For the same compound, the relative viability (COR-L 105; first compound 0.253 µM) was 0.854, the relative viability (COR-L 105; first compound 0.8 µM) was 0.8 and the relative viability (COR-L 105; first compound 2.53 µM) was 1.08. The relative viability (COR-L 105; first compound 8 µM) was 1.38, the relative viability (Calu-6; first compound 0.08 µM) was 0.916 and the relative viability (Calu-6; first compound 0.253 µM) was 0.963. It also gave a relative viability (Calu-6; first compound 0.8 µM) of 0.932, a relative viability (Calu-6; first compound 2.53 µM) of 0.867 and a relative viability (Calu-6; first compound 8 µM) of 0.799. The relative viability (EBC-1; first compound 0.08 µM) was 0.106, the relative viability (EBC-1; first compound 0.253 µM) was 0.0935 and the relative viability (EBC-1; first compound 0.8 µM) was 0.104. It also gave a relative viability (EBC-1; first compound 2.53 µM) of 0.105, a relative viability (EBC-1; first compound 8 µM) of 0.111 and a relative viability (IA-LM; first compound 0.08 µM) of 1.45. For the same compound, the relative viability (IA-LM; first compound 0.253 µM) was 1.33, the relative viability (IA-LM; first compound 0.8 µM) was 1.32 and the relative viability (IA-LM; first compound 2.53 µM) was 1.04. The relative viability (IA-LM; first compound 8 µM) was 1.23, the relative viability (LCLC-103H; first compound 0.08 µM) was 0.721 and the relative viability (LCLC-103H; first compound 0.253 µM) was 0.831. It also gave a relative viability (LCLC-103H; first compound 0.8 µM) of 0.794, a relative viability (LCLC-103H; first compound 2.53 µM) of 0.71 and a relative viability (LCLC-103H; first compound 8 µM) of 0.712. The relative viability (LK-2; first compound 0.08 µM) was 0.933, the relative viability (LK-2; first compound 0.253 µM) was 1.24 and the relative viability (LK-2; first compound 0.8 µM) was 1.23. The relative viability (LK-2; first compound 2.53 µM) was 0.997, the relative viability (LK-2; first compound 8 µM) was 1.25 and the relative viability (NCI-H1299; first compound 0.08 µM) was 1.09. For the same compound, the relative viability (NCI-H1299; first compound 0.253 µM) was 1.13, the relative viability (NCI-H1299; first compound 0.8 µM) was 1.15 and the relative viability (NCI-H1299; first compound 2.53 µM) was 1.09. For the same compound, the relative viability (NCI-H1299; first compound 8 µM) was 1.1, the relative viability (NCI-H1355; first compound 0.08 µM) was 0.999 and the relative viability (NCI-H1355; first compound 0.253 µM) was 1.12. It also gave a relative viability (NCI-H1355; first compound 0.8 µM) of 0.861, a relative viability (NCI-H1355; first compound 2.53 µM) of 0.977 and a relative viability (NCI-H1355; first compound 8 µM) of 0.926. It also gave a relative viability (NCI-H1623; first compound 0.08 µM) of 0.834, a relative viability (NCI-H1623; first compound 0.253 µM) of 0.865 and a relative viability (NCI-H1623; first compound 0.8 µM) of 0.765. For the same compound, the relative viability (NCI-H1623; first compound 2.53 µM) was 0.866, the relative viability (NCI-H1623; first compound 8 µM) was 0.917 and the relative viability (NCI-H1703; first compound 0.08 µM) was 0.348. The relative viability (NCI-H1703; first compound 0.253 µM) was 0.421, the relative viability (NCI-H1703; first compound 0.8 µM) was 0.273 and the relative viability (NCI-H1703; first compound 2.53 µM) was 0.321. For the same compound, the relative viability (NCI-H1703; first compound 8 µM) was 0.334, the relative viability (NCI-H520; first compound 0.08 µM) was 0.786 and the relative viability (NCI-H520; first compound 0.253 µM) was 0.885. It also gave a relative viability (NCI-H520; first compound 0.8 µM) of 0.835, a relative viability (NCI-H520; first compound 2.53 µM) of 0.779 and a relative viability (NCI-H520; first compound 8 µM) of 0.985.

Compound O=c1cc(-c2cccc3c2Sc2ccccc2S3)oc(N2CCOCC2)c1 + N=C(N)NC(=N)NCCc1ccccc1 [Phenformin] (partner 250 µM) has a relative viability (A549; first compound 0.08 µM) of 0.202, a relative viability (A549; first compound 0.253 µM) of 0.097 and a relative viability (A549; first compound 0.8 µM) of 0.315. It also gave a relative viability (A549; first compound 2.53 µM) of 0.129, a relative viability (A549; first compound 8 µM) of 0.28 and a relative viability (COR-L 105; first compound 0.08 µM) of 0.454. The relative viability (COR-L 105; first compound 0.253 µM) was 0.471, the relative viability (COR-L 105; first compound 0.8 µM) was 0.466 and the relative viability (COR-L 105; first compound 2.53 µM) was 0.507. The relative viability (COR-L 105; first compound 8 µM) was 0.47, the relative viability (LCLC-103H; first compound 0.08 µM) was 0.31 and the relative viability (LCLC-103H; first compound 0.253 µM) was 0.374. It also gave a relative viability (LCLC-103H; first compound 0.8 µM) of 0.361, a relative viability (LCLC-103H; first compound 2.53 µM) of 0.336 and a relative viability (LCLC-103H; first compound 8 µM) of 0.296. For the same compound, the relative viability (LK-2; first compound 0.08 µM) was 0.582, the relative viability (LK-2; first compound 0.253 µM) was 0.551 and the relative viability (LK-2; first compound 0.8 µM) was 0.524. For the same compound, the relative viability (LK-2; first compound 2.53 µM) was 0.29, the relative viability (LK-2; first compound 8 µM) was 0.381 and the relative viability (NCI-H1355; first compound 0.08 µM) was 0.47. It also gave a relative viability (NCI-H1355; first compound 0.253 µM) of 0.479, a relative viability (NCI-H1355; first compound 0.8 µM) of 0.421 and a relative viability (NCI-H1355; first compound 2.53 µM) of 0.429. For the same compound, the relative viability (NCI-H1355; first compound 8 µM) was 0.409, the relative viability (NCI-H1623; first compound 0.08 µM) was 0.603 and the relative viability (NCI-H1623; first compound 0.253 µM) was 0.68. It also gave a relative viability (NCI-H1623; first compound 0.8 µM) of 0.593, a relative viability (NCI-H1623; first compound 2.53 µM) of 0.535 and a relative viability (NCI-H1623; first compound 8 µM) of 0.576. It also gave a relative viability (NCI-H520; first compound 0.08 µM) of 0.505, a relative viability (NCI-H520; first compound 0.253 µM) of 0.507 and a relative viability (NCI-H520; first compound 0.8 µM) of 0.479. It also gave a relative viability (NCI-H520; first compound 2.53 µM) of 0.372, a relative viability (NCI-H520; first compound 8 µM) of 0.619 and a relative viability (NCI-H522; first compound 0.08 µM) of 0.56. For the same compound, the relative viability (NCI-H522; first compound 0.253 µM) was 0.689, the relative viability (NCI-H522; first compound 0.8 µM) was 0.622 and the relative viability (NCI-H522; first compound 2.53 µM) was 0.556. For the same compound, the relative viability (NCI-H522; first compound 8 µM) was 0.67.
